{
  "source": "patent US11725199B2",
  "about": "“Lactic acid bacteria with sweetening properties and uses thereof” (DUPONT NUTRITION BIOSCIENCES APS, priority 2017, dated 2023)",
  "experiment_in_all_cases": "Maximal forward velocity and Km of GlcK, glucose varied (test C)",
  "assay_type_in_all_cases": "biochemical",
  "key": {"[1]": {"target": "T1, Streptococcus thermophilus glucokinase (GlcK) of strain DGCC7710 (DSM28255, GlcK type ST1), non-mutated, SEQ ID NO: 2 (Streptococcus thermophilus, UniProt Q5M4Y5)", "T1 construct": "G-6PDH/NADP coupled assay", "T1 sequence (Q5M4Y5 1-322)": "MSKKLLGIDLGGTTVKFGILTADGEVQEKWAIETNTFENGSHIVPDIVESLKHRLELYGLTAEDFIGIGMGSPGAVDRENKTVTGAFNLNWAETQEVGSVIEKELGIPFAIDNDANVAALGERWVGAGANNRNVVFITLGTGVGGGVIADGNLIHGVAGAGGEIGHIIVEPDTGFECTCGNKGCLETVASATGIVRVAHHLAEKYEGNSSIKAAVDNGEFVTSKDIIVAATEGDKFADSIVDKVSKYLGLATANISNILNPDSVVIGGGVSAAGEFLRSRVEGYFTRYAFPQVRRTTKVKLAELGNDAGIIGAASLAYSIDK", "settings": "DGCC7710 crude extract; glucose 0, 5, 10, 15, 20 mM; 1 mM ATP; pH 7.2; 30° C; average of three experiments", "quoted_text": "The linear regression representing the inverse of the specific velocity in function of the inverse of the glucose concentration gives the inverse of the maximal forward velocity at the intersection with the Y-axis of the graphic.\nA fresh overnight culture of a Streptococcus thermophilus strain in M17 containing 30 g/L lactose was obtained and used to inoculate at 1% (vol/vol) 10 ml of fresh M17 30 g/L lactose. Cells were harvested by centrifugation (6000 g, 10 min, 4° C.) at a 600 nm optical density (OD600) of 0.8+/−0.2, washed in 5 ml cold GLCK buffer (5 mM MgCl2, 10 mM K2HPO4/KH2PO4 [pH 7.2]), and resuspended in 500 μl cold GLCK buffer. EDTA-free protease inhibitors “cOmplete™” (Roche, supplier reference 04693132001) was added in GLCK buffer as described by the provider. Cells were disrupted by the addition of 100 mg glass beads (150-212 μm, Sigma G1145) to 200 μl resuspended cells and oscillation at a frequency of 30 cycles/s for 6 min in a MM200 oscillating mill (Retsch, Haan, Germany). […] Total protein content was determined by using the FLUKA Protein Quantification Kit-Rapid (ref 51254). […] The optical density at 340 nm was measured for 5 minutes by using a Synergy HT multi-detection microplate reader (BIO-TEK). […] Glucokinase activity was calculated as follows: […]"}, "[2]": {"target": "T2, Streptococcus thermophilus glucokinase (GlcK) variant E275K of DGCC7710, strain DSM32587 (DGCC12534), SEQ ID NO: 22 (Streptococcus thermophilus, UniProt Q5M4Y5, E275K)", "T2 construct": "G-6PDH/NADP coupled assay", "T2 sequence (Q5M4Y5 1-322 E275K)": "T1 sequence (Q5M4Y5 1-322) with E275K", "settings": "DSM32587 crude extract, glucose 0, 5, 10, 15, 20 mM, 1 mM ATP, pH 7.2, 30° C", "procedure": "A fresh overnight culture of a Streptococcus thermophilus strain in M17 containing 30 g/L lactose was obtained and used to inoculate at 1% (vol/vol) 10 ml of fresh M17 30 g/L lactose. Cells were harvested by centrifugation (6000 g, 10 min, 4° C.) at a 600 nm optical density (OD600) of 0.8+/−0.2, washed in 5 ml cold GLCK buffer (5 mM MgCl2, 10 mM K2HPO4/KH2PO4 [pH 7.2]), and resuspended in 500 μl cold GLCK buffer. EDTA-free protease inhibitors “cOmplete™” (Roche, supplier reference 04693132001) was added in GLCK buffer as described by the provider. Cells were disrupted by the addition of 100 mg glass beads (150-212 μm, Sigma G1145) to 200 μl resuspended cells and oscillation at a frequency of 30 cycles/s for 6 min in a MM200 oscillating mill (Retsch, Haan, Germany). […] Total protein content was determined by using the FLUKA Protein Quantification Kit-Rapid (ref 51254). The glucokinase activity in the cell extracts was determined spectrophotometrically by a glucose-6-phosphate dehydrogenase (G-6PDH, EC1.1.1.49):[…] assay (Porter et al., 1982), essentially as described by Pool et al. (2006). […] The optical density at 340 nm was measured for 5 minutes by using a Synergy HT multi-detection microplate reader (BIO-TEK). […] Glucokinase activity was calculated as follows: […]"}, "[3]": {"target": "T3, Streptococcus thermophilus glucokinase (GlcK) variant E275K of ST1.2, strain ST1.2m-glcK, SEQ ID NO: 22 (Streptococcus thermophilus, UniProt Q5M4Y5, E275K)", "T3 construct": "G-6PDH/NADP coupled assay", "T3 sequence (Q5M4Y5 1-322 E275K)": "T1 sequence (Q5M4Y5 1-322) with E275K", "procedure": "(§1) A fresh overnight culture of a Streptococcus thermophilus strain in M17 containing 30 g/L lactose was obtained and used to inoculate at 1% (vol/vol) 10 ml of fresh M17 30 g/L lactose. Cells were harvested by centrifugation (6000 g, 10 min, 4° C.) at a 600 nm optical density (OD600) of 0.8+/−0.2, washed in 5 ml cold GLCK buffer (5 mM MgCl2, 10 mM K2HPO4/KH2PO4 [pH 7.2]), and resuspended in 500 μl cold GLCK buffer. EDTA-free protease inhibitors “cOmplete™” (Roche, supplier reference 04693132001) was added in GLCK buffer as described by the provider. Cells were disrupted by the addition of 100 mg glass beads (150-212 μm, Sigma G1145) to 200 μl resuspended cells and oscillation at a frequency of 30 cycles/s for 6 min in a MM200 oscillating mill (Retsch, Haan, Germany). Cell debris and glass beads were removed by centrifugation (14000 g, 15 min, 4° C.), and supernatant transferred into a clean 1.5 mL centrifuge tube kept on ice. Total protein content was determined by using the FLUKA Protein Quantification Kit-Rapid (ref 51254). The glucokinase activity in the cell extracts was determined spectrophotometrically by a glucose-6-phosphate dehydrogenase (G-6PDH, EC1.1.1.49):[…] assay (Porter et al., 1982), essentially as described by Pool et al. (2006). […] The optical density at 340 nm was measured for 5 minutes by using a Synergy HT multi-detection microplate reader (BIO-TEK). […] Glucokinase activity was calculated as follows:\n(§2) Glucokinase activity (U/g of total protein extract)=dOD×V/[dt×l×ε×Qprot], wherein: • dOD is the variation of optical density (OD) at 340 nm • V is the volume of the reaction (herein 250 μL)\n(§3) Measurements were triplicated for each sample, and the glucokinase specific activity values given herein under test A are the mean of three independent experiments.\n(§4) Measurements were triplicated for each sample, and the Vmax values given herein under test C are the mean of three independent experiments.\n(§5) The respective mutants were called ST1.1m-glcK and ST1.2m-glcK. The GlcK sequence of these 2 mutants is as defined in SEQ ID NO:22."}, "[4]": {"target": "T4, Streptococcus thermophilus glucokinase (GlcK) of strain ST1.2 (parent) (Streptococcus thermophilus, UniProt Q5M4Y5)", "T4 construct": "G-6PDH/NADP coupled assay", "T4 sequence (Q5M4Y5 1-322)": "T1 sequence (Q5M4Y5 1-322)", "procedure": "as §1, §2, §3, §4, §5"}, "[5]": {"target": "T5, Streptococcus thermophilus glucokinase (GlcK) variant E275K of ST1.1, strain ST1.1m-glcK, SEQ ID NO: 22 (Streptococcus thermophilus, UniProt Q5M4Y5, E275K)", "T5 construct": "G-6PDH/NADP coupled assay", "T5 sequence (Q5M4Y5 1-322 E275K)": "T1 sequence (Q5M4Y5 1-322) with E275K", "procedure": "as §1, §2, §3, §4, §5"}, "[6]": {"target": "T6, Streptococcus thermophilus glucokinase (GlcK) of strain ST1.1 (parent) (Streptococcus thermophilus, UniProt Q5M4Y5)", "T6 construct": "G-6PDH/NADP coupled assay", "T6 sequence (Q5M4Y5 1-322)": "T1 sequence (Q5M4Y5 1-322)", "procedure": "as §1, §2, §3, §4, §5"}},
  "note": "Changes are numbered by the printed parent chain.",
  "data": [
    {"smiles": "OC[C@H]1OC(O)[C@H](O)[C@@H](O)[C@@H]1O", "note": "(some centres unmarked) [glucose]", "values": [
      {"measurement": "Vmax Glucokinase (glucose)", "setting": "[1]", "result": 2855, "unit": "U/g total protein extract"},
      {"measurement": "Vmax Glucokinase (glucose)", "setting": "[2]; average of three experiments", "result": 914, "unit": "U/g total protein extract"},
      {"measurement": "Km", "setting": "[2]; read-out: Km Glucokinase (glucose), average", "result": 1330, "unit": "µM"},
      {"measurement": "Vmax Glucokinase (glucose)", "setting": "[3]; ST1.2m-glcK crude extract, glucose 0, 5, 10, 15, 20 mM, 1 mM ATP, pH 7.2, 30° C, average of three experiments", "result": 501, "unit": "U/g total protein extract"},
      {"measurement": "Vm Glucokinase (glucose)", "setting": "[3]; ST1.2m-glcK, summary table", "result": 501},
      {"measurement": "Vm Glucokinase (glucose)", "setting": "[4]; ST1.2, summary table", "result": 2431},
      {"measurement": "Vmax Glucokinase (glucose)", "setting": "[4]; ST1.2 crude extract, glucose 0, 5, 10, 15, 20 mM, 1 mM ATP, pH 7.2, 30° C, average of three experiments", "result": 2431, "unit": "U/g total protein extract"},
      {"measurement": "Vmax Glucokinase (glucose)", "setting": "[5]; ST1.1m-glcK crude extract, glucose 0, 5, 10, 15, 20 mM, 1 mM ATP, pH 7.2, 30° C, average of three experiments", "result": 795, "unit": "U/g total protein extract"},
      {"measurement": "Vm Glucokinase (glucose)", "setting": "[5]; ST1.1m-glcK, summary table", "result": 795},
      {"measurement": "Vm Glucokinase (glucose)", "setting": "[6]; ST1.1, summary table", "result": 2687},
      {"measurement": "Vmax Glucokinase (glucose)", "setting": "[6]; ST1.1 crude extract, glucose 0, 5, 10, 15, 20 mM, 1 mM ATP, pH 7.2, 30° C, average of three experiments", "result": 2687, "unit": "U/g total protein extract"}
    ]}
  ]
}
